Measurements taken from PubChem BioAssay AID330 (DTP/NCI, 2004).
Where “and” joins values, the source holds several entries; their conditions need not be identical. Identical values can stand only once. Inconclusive results and toxic doses are left out. The calls were made as follows: active = survival T/C of 150% or more; inactive = T/C below 125% in these data.

System: P388 leukemia ip, CD2F1 mice, survival T/C
Assay: NCI In Vivo Anticancer Drug Screen. Data for tumor model P388 Leukemia (intraperitoneal) in CD2F1 (CDF1) mice
Details: endpoint: median survival time, higher = longer survival
In short: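 Mice carrying the transplanted tumor received test compound or vehicle. Survival was recorded in each group, and the value is the treated-group measurement divided by that of the vehicle-treated control group.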

[1] = dose: 50.0 mg/kg/injection, schedule: Q01DX009 (ip), vehicle: saline with Tween-80
[2] = dose: 100.0 mg/kg/injection, schedule: Q01DX009 (ip), vehicle: saline with Tween-80
[3] = dose: 200.0 mg/kg/injection, schedule: Q01DX009 (ip), vehicle: saline with Tween-80
[4] = dose: 50.0 mg/kg/injection, schedule: Q01DX005 (ip), vehicle: saline with Tween-80
[5] = dose: 100.0 mg/kg/injection, schedule: Q01DX005 (ip), vehicle: saline with Tween-80
[6] = dose: 200.0 mg/kg/injection, schedule: Q01DX005 (ip), vehicle: saline with Tween-80
[7] = dose: 60.0 mg/kg/injection, schedule: Q01DX005 (ip), vehicle: Klucel (hydroxypropylcellulose) (HPC)
[8] = dose: 120.0 mg/kg/injection, schedule: Q01DX005 (ip), vehicle: Klucel (hydroxypropylcellulose) (HPC)
[9] = dose: 240.0 mg/kg/injection, schedule: Q01DX005 (ip), vehicle: Klucel (hydroxypropylcellulose) (HPC)
[10] = dose: 60.0 mg/kg/injection, schedule: Q01DX005 (ip), vehicle: saline with Tween-80
[11] = dose: 120.0 mg/kg/injection, schedule: Q01DX005 (ip), vehicle: saline with Tween-80
[12] = dose: 240.0 mg/kg/injection, schedule: Q01DX005 (ip), vehicle: saline with Tween-80
[13] = dose: 50.0 mg/kg/injection, schedule: Q01DX005 (ip), vehicle: Klucel (hydroxypropylcellulose) (HPC)
[14] = dose: 100.0 mg/kg/injection, schedule: Q01DX005 (ip), vehicle: Klucel (hydroxypropylcellulose) (HPC)
[15] = dose: 200.0 mg/kg/injection, schedule: Q01DX005 (ip), vehicle: Klucel (hydroxypropylcellulose) (HPC)
[16] = dose: 12.5 mg/kg/injection, schedule: Q01DX009 (ip), vehicle: saline with Tween-80
[17] = dose: 25.0 mg/kg/injection, schedule: Q01DX009 (ip), vehicle: saline with Tween-80
[18] = dose: 50.0 mg/kg/injection, schedule: Q01DX005 (ip), vehicle: distilled water + Tween-80
[19] = dose: 100.0 mg/kg/injection, schedule: Q01DX005 (ip), vehicle: distilled water + Tween-80
[20] = dose: 200.0 mg/kg/injection, schedule: Q01DX005 (ip), vehicle: distilled water + Tween-80
[21] = dose: 25.0 mg/kg/injection, schedule: Q01DX005 (ip), vehicle: Klucel (hydroxypropylcellulose) (HPC)
[22] = dose: 12.5 mg/kg/injection, schedule: Q01DX005 (ip), vehicle: Klucel (hydroxypropylcellulose) (HPC)
[23] = dose: 50.0 mg/kg/injection, schedule: Q01DX009 (ip), vehicle: Klucel (hydroxypropylcellulose) (HPC)
[24] = dose: 100.0 mg/kg/injection, schedule: Q01DX009 (ip), vehicle: Klucel (hydroxypropylcellulose) (HPC)
[25] = dose: 200.0 mg/kg/injection, schedule: Q01DX009 (ip), vehicle: Klucel (hydroxypropylcellulose) (HPC)

Measured: T/C

CC(=O)NC(CCC(C)(C)SCc1ccccc1)C(=O)O (stereo unspecified)
inactive: [1] 91 % of control | [2] 94 % of control | [3] 103 % of control

CC(=O)c1cc(-c2ccc3ccccc3c2)nc2ccccc12
inactive: [4] 96 % of control | [5] 94 % of control | [6] 100 % of control

O=c1[nH]c2c([N+](=O)[O-])cc(Cl)cc2nc1/C=C(\O)c1ccccn1
inactive: [7] 101 % of control | [8] 99 % of control | [9] 98 % of control

NC(Cc1ccc[se]1)C(=O)O (stereo unspecified)
inactive: dose: 6.25 mg/kg/injection, schedule: Q01DX005 (ip), vehicle: saline 105 % of control | dose: 12.5 mg/kg/injection, schedule: Q01DX005 (ip), vehicle: saline 99 % of control | dose: 25.0 mg/kg/injection, schedule: Q01DX005 (ip), vehicle: saline with Tween-80 103 % of control | dose: 25.0 mg/kg/injection, schedule: Q01DX005 (ip), vehicle: saline 97 % of control | [4] 94 % of control

CC(C)(O)C#C[Si](C)(C)C
inactive: [4] 98 % of control | [5] 103 % of control | [6] 94 % of control

O=C(CN1C(=O)c2ccccc2C1=O)C(O)CN1C(=O)c2ccccc2C1=O (stereo unspecified)
inactive: [4] 94 % of control | [5] 94 % of control | [6] 100 % of control

CC1=C(C)CN(c2ccnc3cc(Cl)ccc23)OC1
inactive: [4] 102 % of control | [5] 97 % of control | [6] 97 % of control

CC1(c2ccccc2)OC(=O)C=CC1=O (stereo unspecified)
inactive: [10] 110 % of control | [11] 104 % of control | [12] 108 % of control

OCc1cc2ccccc2c2c1OCCOCCOCCOCCOCCOc1ccc3ccccc3c1-2
inactive: dose: 100.0 mg/kg/injection, schedule: Q04DX002 (ip), vehicle: saline with Tween-80 104 % of control | dose: 200.0 mg/kg/injection, schedule: Q04DX002 (ip), vehicle: saline with Tween-80 99 % of control | dose: 400.0 mg/kg/injection, schedule: Q04DX002 (ip), vehicle: saline with Tween-80 107 % of control

COC(=O)C1C(Sc2ccccc2)CCN1C(C)=O (stereo unspecified)
inactive: dose: 50.0 mg/kg/injection, schedule: Q01DX005 (ip), vehicle: saline 88 % of control | dose: 100.0 mg/kg/injection, schedule: Q01DX005 (ip), vehicle: saline 88 % of control | dose: 200.0 mg/kg/injection, schedule: Q01DX005 (ip), vehicle: saline 88 % of control

CNc1nc2c(N)ncnc2n1C1CC(O)C(CO)O1 (stereo unspecified)
inactive: [13] 101 % of control | [14] 96 % of control | [15] 104 % of control

O=C(OCC(Cl)(Cl)Cl)N1[C@@H]2C=C[C@@H](N1C(=O)OCC(Cl)(Cl)Cl)[C@@]13CCCCC21O3 (stereo partly specified)
inactive: [13] 102 % of control | [14] 108 % of control | [15] 103 % of control

COC(=O)CCC1=CC(=O)C(OC)=CC1=O
inactive: dose: 6.25 mg/kg/injection, schedule: Q01DX009 (ip), vehicle: saline with Tween-80 110 % of control | [16] 97 % of control | [17] 99 % of control

CCOc1cc2c(cc1C(C)c1ccc(O)cc1)OCO2 (stereo unspecified)
inactive: [18] 102 % of control | [19] 105 % of control | [20] 109 % of control

CC1=NN(C(C)(C)C)[Si]2(C(C)(C)C)C1[Si]1(C(C)(C)C)C2C(C)=NN1C(C)(C)C (stereo unspecified)
inactive: [21] 92 % of control | [13] 86 % of control | [14] 90 % of control | [15] 90 % of control

CN(N=O)C(=O)Nc1cc(=O)[nH]c(SCc2ccccc2)n1
inactive: [22] 104 % of control | [21] 114 % of control | [13] 124 % of control
active: [14] 160 % of control

CNC(=O)OCc1snc(-c2ccccc2)c1COC(=O)NC
inactive: dose: 12.5 mg/kg/injection, schedule: Q01DX005 (ip), vehicle: distilled water + Tween-80 99 % of control | dose: 25.0 mg/kg/injection, schedule: Q01DX005 (ip), vehicle: distilled water + Tween-80 101 % of control | [18] 99 % of control | [19] 96 % of control | [20] 108 % of control

N/C(=N\O)N(c1ccccc1)c1ccccc1
inactive: [17] 97 % of control | [1] 98 % of control | [2] 99 % of control

O=[N+]([O-])c1cccc2c[n+](Cc3ccccc3)ccc12
inactive: [16] 113 % of control | [17] 118 % of control | [1] 107 % of control

CC(C)OC(=S)NC(=O)c1ccccc1
inactive: [1] 109 % of control | [2] 100 % of control | [3] 103 % of control | dose: 400.0 mg/kg/injection, schedule: Q01DX009 (ip), vehicle: saline with Tween-80 108 % of control

CCOC(=O)C[C@@]1(C)C(=O)O[C@H](c2ccccc2)N1C(=O)c1ccccc1
inactive: [10] 106 % of control | [11] 100 % of control | [12] 94 % of control

CCOC(=O)c1cncc(Br)c1
inactive: [4] 113 % of control | [5] 103 % of control | [6] 113 % of control

O=C(O)COc1cc2c(cc1Cc1ccc3c(c1)OCO3)OCO2
inactive: [13] 99 % of control | [14] 96 % of control | [15] 97 % of control

CC12CCC3C(C1)C(C(=O)O2)C(=O)OC3(C)C (stereo unspecified)
inactive: [23] 93 % of control | [24] 101 % of control | [25] 97 % of control

Cc1ccc(S(=O)(=O)N/N=C2/C=CC3(CC=CCC3)CC2)cc1 (stereo unspecified)
inactive: [23] 109 % of control | [24] 100 % of control | [25] 100 % of control

CCCCNC(=O)C(c1ccccc1)c1ccccc1
inactive: [23] 99 % of control | [24] 106 % of control | [25] 100 % of control

Cc1cccc(C2N=C3Oc4ccccc4C=C3C(=O)N2)c1 (stereo unspecified)
inactive: dose: 6.25 mg/kg/injection, schedule: Q01DX005 (ip), vehicle: Klucel (hydroxypropylcellulose) (HPC) 96 % of control | [22] 95 % of control | [21] 96 % of control | [13] 99 % of control | [14] 105 % of control

CCCCCCCCCCCC[N+]1(CC)CCCC1
inactive: dose: 1.56 mg/kg/injection, schedule: Q01DX009 (ip), vehicle: saline 100 % of control | dose: 3.12 mg/kg/injection, schedule: Q01DX009 (ip), vehicle: saline 98 % of control and 92 % of control | dose: 6.25 mg/kg/injection, schedule: Q01DX009 (ip), vehicle: saline 86 % of control

O=C(Nc1cccc2ccccc12)c1cc2c(cc1Br)OCO2
inactive: dose: 12.5 mg/kg/injection, schedule: Q01DX009 (ip), vehicle: distilled water + Tween-80 104 % of control | dose: 25.0 mg/kg/injection, schedule: Q01DX009 (ip), vehicle: distilled water + Tween-80 95 % of control | dose: 50.0 mg/kg/injection, schedule: Q01DX009 (ip), vehicle: distilled water + Tween-80 92 % of control | dose: 200.0 mg/kg/injection, schedule: Q01DX009 (ip), vehicle: distilled water + Tween-80 90 % of control

S=C(Nc1ccccc1)Nc1ncccn1
inactive: [23] 111 % of control | [24] 99 % of control

CC(=O)OC(C)C(C)N(C)C (stereo unspecified)
inactive: dose: 100.0 mg/kg/injection, schedule: Q04DX003 (ip), vehicle: saline 94 % of control | dose: 200.0 mg/kg/injection, schedule: Q04DX003 (ip), vehicle: saline 101 % of control

CC12CN3CC(C)(C1=O)C(=O)C(C)(C3)C2=O
inactive: dose: 60.0 mg/kg/injection, schedule: Q01DX005 (ip), vehicle: saline 94 % of control | dose: 120.0 mg/kg/injection, schedule: Q01DX005 (ip), vehicle: saline 92 % of control | dose: 240.0 mg/kg/injection, schedule: Q01DX005 (ip), vehicle: saline 94 % of control

O=C1c2sccc2[C@H](NC(=O)C(F)(F)F)[C@@H]1Cl
inactive: [10] 100 % of control | [11] 100 % of control | [12] 100 % of control

CCNS(=O)(=O)c1ccc2c(c1)nc(SC)n2CC
inactive: [7] 104 % of control | [8] 105 % of control | [9] 104 % of control

CC(C)(C)C1CS1 (stereo unspecified)
inactive: [4] 107 % of control | [5] 107 % of control | [6] 117 % of control

CCN(CC)CC(=O)Nc1ccc2c(c1)C(=O)c1cc(NC(=O)CN(CC)CC)ccc1-2
inactive: [1] 86 % of control | [2] 94 % of control | [3] 96 % of control
